Laboratory results reported in patent US8586307B2, “Methods for diagnosing epigenetic, transgenerational effects of environmental toxicants on mammalian germ-lines and treating associated diseases” (priority 2005, dated 2013).

Columns and labels:
F1 generation testis = settings: cited from earlier work
[1] = General observations (body weight, litter size, serum testosterone, other tissues); type: in vivo, rat
Procedure: In Vivo Procedures: Gestating outbred Sprague-Dawley and inbred Fisher mother rats from timed, pregnant colonies housed at the Washington State University Vivarium, were given intraperitoneal injections of vinclozolin (100 mg/kg/day) and methoxychlor (200 mg/kg/day) from embryonic day 8-15 (E8-E15, sperm positive vaginal smear date=E0) of gestation (F0 generation) as previously described. Gestating mothers administered vehicle, sesame oil or DMSO, served as controls. At least 6 lines (individual F0 injected females) were generated for controls and treated groups for these analyses. Male rats from control and treated groups were collected at P60-P180 for analyses. F1 treated males were bred to F1 treated females to generate the F2 treated generation and F2 treated males were bred to F2 treated females to generate the F3 generation and the F3 were bred in the same manner to generate the F4 generation. Rats for the control groups were bred in the same manner for all the generations. No inbreeding or sibling crosses were generated. The outcross group (VOC) were generated by breeding the F2 treated males with wild-type females (total of 6 litters) and reverse outcross group (RVOC) was generated by breeding F2 treated females with wild-type males (total of 3 litters). Control (n=4) and treated (n=4) male offspring from the F1 generation from Fisher strain rats were collected at P6 for DNA methylation analysis, see below. All procedures have been approved by the Washington State University Animal Care Committee. The number of animals used for replicates in the experiments (i.e. n value) are as follows for vinclozolin treatment: F1 (control 11, treated 12); F2 (control 19, treated 30); F3 (control 19, treated 26); F4 (control 10, treated 17); VOC (18); and RVOC (6). For methoxychlor treatment animal number was for F1 (control 6, treated 9) and F2 (control 16, treated 22).

SMILES: COc1ccc(C(c2ccc(OC)cc2)C(Cl)(Cl)Cl)cc1 [methoxychlor]
- adult F1 generation testis phenotype (F1 generation testis; gestating mother exposed E8-E15, 100 or 200 mg/kg i.p. daily): reduced spermatogenic capacity, increased spermatogenic cell apoptosis and decreased sperm number and motility
- effect on the F1 generation testis (F1 generation testis; transient exposure E15-E20): no effect
- serum testosterone levels ([1]; all the animals): normal
- effect on total body weight ([1]; endocrine disruptor treatment, F1): no effect
- gross abnormality in any other tissues examined ([1]; rat, in vivo): No gross abnormality
